Series [1] has as its system Klebsiella pneumoniae KPM1004 overexpressing the AcrABTolC efflux pump. As to the kind of experiment: microbe, parasite or virus in culture. Type of series: cell-based. From the text:
(§1) EPI activity is defined as concentration of an EPI compound that is necessary to achieve ½ of a maximum theoretical effect in increase of antibiotic susceptibility due to efflux inhibition. The maximum theoretical effect, Emax, is defined as a ratio of antibacterial activity of antibiotics (minimal inhibitory concentration, MIC) of pump overexpressing vs. pump lacking strains. […] The strain PAM1723, overexpressing the MexABOprM efflux pump was used as a test strain. […] Azithromycin was used as test antibiotic to assess the EPI activity in Klebsiella pneumoniae. The strain KPM1004 overexpressing the AcrABTolC efflux pump was used as a test strain. […] Thus, EPI activity, that is assessed in K. pneumoniae, is a concentration of an EPI compound that is necessary to increase susceptibility to azithromicin of KPM1004 sixteen fold.
(§2) The EPI activity of the test compounds was assessed by the checkerboard assay (Antimicrobial Combinations, Antibiotics in Laboratory Medicine, Ed. Victor Lorian, M.D., Fourth edition, 1996, pp 333338, which is incorporated herein by reference in its entirety) using a broth microdilution method performed as recommended by the NCCLS (National Committee for Clinical Laboratory Standards (NCCLS), 1997, Methods for Dilution of Antimicrobial Susceptibility Tests for Bacteria That Grow Aerobically, Fourth Edition; Approved Standard. NCCLS Document M7A4, Vol 17 No. 2, which is incorporated herein by reference in its entirety). […] All EPI compounds were readily soluble in water and stock solutions were prepared at a final concentration of 10 mg/ml. Stock solutions were further diluted, according to the needs of the particular assay, in Mueller Hinton Broth (MHB). Stock solution was stored at −80° C. The checkerboard assay was performed in microtiter plates. […] EPIs were diluted in the axis, each row containing a single concentration of an EPI. […] The assay was performed in MHB with a final bacterial (PAM1723 or […]) inoculum of 5 times 10^5 CFU/ml (from an early log phase culture). Microtiter plates were incubated during 20 h at 35° C. and were read using a microtiter plate reader (Molecular Devices) at 650 nm as well as visual observation using a microtiter plate reading mirror.
(§3) Azithromycin potentiation activities of selected inhibitors for K. pneumoniae are reported as MPC16 values.

For series [2], the system named is Klebsiella pneumoniae KPM1007 which lacks efflux. As to the kind of experiment: microbe, parasite or virus in culture. Type of series: cell-based. As to conditions: read-out: Azithromycin MIC.
Series [3] concerns P. aeruginosa PAM1723, overexpressing the MexABOprM efflux pump. It counts as cell-based, Pseudomonas aeruginosa. The note with it: lowest inhibitor concentration giving antibacterial activity with levofloxacin at 1/8 of its MIC.
Description: as §1, §2, §3

A short description of series [4]: Rat serum pharmacokinetics after 1.5-hour IV infusion. Type of series: in vivo. The note with it: […] IV infusion in 0.9% saline, total dose 2, 5, 10 or 20 mg/kg, two-compartment model. The procedure: In the experiment depicted in Table 7, above, rat serum pharmacokinetics of selected inhibitor compounds was evaluated after 1.5-hour IV infusion of 1.5 ml solution of corresponding efflux pump inhibitor in 0.9% saline. Depending on the concentration used the total infused dose was 2, 5, 10 or 20 mg/kg. A two-compartment model was used to fit the data and calculate PK parameters.

In brackets after ≈: the same amount, converted by molar mass.

Consider `CC[C@H]1OC(=O)[C@H](C)[C@@H](O[C@H]2C[C@@](C)(OC)[C@@H](O)[C@H](C)O2)[C@H](C)[C@@H](O[C@@H]2O[C@H](C)C[C@H](N(C)C)[C@H]2O)[C@](C)(O)C[C@@H](C)CN(C)[C@H](C)[C@@H](O)[C@]1(C)O` [Azithromycin, reference compound], for which the MIC is 32 µg/mL in series [1] (Klebsiella pneumoniae, read-out: Azithromycin MIC) and 0.125 µg/mL (≈ 0.167 µM) in series [2]. For the same compound, the “Emax (ratio of MIC of pump overexpressing vs. pump lacking strains)” value in series [1] (azithromycin, KPM1004 vs KPM1007) was 256.

Regarding “3-[(1S)-3-[bis(2-azaniumylethyl)carbamoyl]-1-{[(1S,2R)-1-carbamoyl-2-hydroxy-2-[4-(trifluoromethyl)phenyl]ethyl]carbamoyl}propan-1-aminium]quinolin-1-ium tetrachloride [Compound 3]”, the “MPC8 (μg/mL) (Levofloxacin, PAM1723)” value in series [3] was determined as 1.25 µg/mL. Also, the “MPC16 (μg/mL) Azithromycin, KPM1004)” value in series [1] (lowest inhibitor concentration giving antibacterial activity with azithromycin at 1/16 of its MIC, K. pneumoniae KPM1004) turned out to be 1.25 µg/mL. Further, in series [4], the pharmacokinetic profile result is listed as “particularly attractive pharmacokinetic profiles”.
